Test results from BindingDB's records for doi:10.1074/jbc.M111.292243 (University of Copenhagen, 2012).

Assays:
Assay in all cases: Radioligand Competition Assay
[1] = target: Neuronal acetylcholine receptor subunit alpha-4 (Rattus norvegicus, UniProt P09483)
[2] = target: Neuronal acetylcholine receptor subunit alpha-7 (Rattus norvegicus, UniProt Q05941)
[3] = target: Acetylcholine-binding protein (Lymnaea stagnalis, UniProt P58154)
Chain of Acetylcholine-binding protein (P58154 whole entry): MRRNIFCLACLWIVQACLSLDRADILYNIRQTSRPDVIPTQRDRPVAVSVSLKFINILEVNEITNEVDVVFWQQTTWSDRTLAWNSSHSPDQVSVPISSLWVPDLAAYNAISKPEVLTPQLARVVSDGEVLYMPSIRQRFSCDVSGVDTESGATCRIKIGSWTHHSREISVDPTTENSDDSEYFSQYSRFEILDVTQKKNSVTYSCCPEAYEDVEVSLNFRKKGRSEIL

Chain of Neuronal acetylcholine receptor subunit alpha-4 (P09483 whole entry): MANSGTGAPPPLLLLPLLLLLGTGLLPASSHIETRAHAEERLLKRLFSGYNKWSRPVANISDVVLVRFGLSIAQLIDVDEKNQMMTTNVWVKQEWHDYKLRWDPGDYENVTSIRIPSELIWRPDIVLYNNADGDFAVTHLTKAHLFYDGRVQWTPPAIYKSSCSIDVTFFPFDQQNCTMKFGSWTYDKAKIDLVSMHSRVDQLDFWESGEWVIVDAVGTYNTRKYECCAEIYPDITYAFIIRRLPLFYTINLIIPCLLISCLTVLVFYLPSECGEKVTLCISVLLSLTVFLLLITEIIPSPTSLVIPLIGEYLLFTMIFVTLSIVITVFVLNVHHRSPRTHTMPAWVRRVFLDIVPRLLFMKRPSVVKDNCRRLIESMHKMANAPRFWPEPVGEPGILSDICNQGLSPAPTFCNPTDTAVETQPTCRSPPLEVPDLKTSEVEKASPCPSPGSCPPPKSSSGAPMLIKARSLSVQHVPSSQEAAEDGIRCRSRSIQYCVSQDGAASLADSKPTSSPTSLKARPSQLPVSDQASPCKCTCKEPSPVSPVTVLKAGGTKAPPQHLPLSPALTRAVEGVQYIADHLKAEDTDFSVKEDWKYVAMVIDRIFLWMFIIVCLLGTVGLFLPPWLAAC
Chain of Neuronal acetylcholine receptor subunit alpha-7 (Q05941 whole entry): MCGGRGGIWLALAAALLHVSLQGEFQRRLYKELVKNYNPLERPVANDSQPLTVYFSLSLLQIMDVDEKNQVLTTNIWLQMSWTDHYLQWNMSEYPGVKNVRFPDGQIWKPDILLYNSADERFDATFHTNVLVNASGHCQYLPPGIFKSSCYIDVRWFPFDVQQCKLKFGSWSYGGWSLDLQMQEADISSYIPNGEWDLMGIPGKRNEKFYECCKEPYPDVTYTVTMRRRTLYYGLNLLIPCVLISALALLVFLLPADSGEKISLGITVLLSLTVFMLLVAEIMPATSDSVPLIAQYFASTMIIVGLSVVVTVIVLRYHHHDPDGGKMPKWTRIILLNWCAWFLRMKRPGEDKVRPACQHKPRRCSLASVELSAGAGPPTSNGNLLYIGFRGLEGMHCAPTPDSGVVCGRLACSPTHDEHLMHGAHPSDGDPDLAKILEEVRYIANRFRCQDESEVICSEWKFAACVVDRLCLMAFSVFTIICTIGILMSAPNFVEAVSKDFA

| SMILES | Ki [1] [nM] | Ki [2] [nM] | Ki [3] [nM] |
| --- | --- | --- | --- |
| c1ccc(-c2cncc(N3CCCNCC3)c2)cc1 | 0.8 | > 10000 | – |
| c1cncc(N2CCCNCC2)c1 | 0.72 | 136 | – |
| CCOc1cc(N2CCCNCC2)cnc1Br | 0.25 | 847 | – |
| Clc1ccc([C@H]2C[C@@H]3CC[C@H]2N3)cn1 | – | – | 0.097 |
| O=c1cccc2n1CC1CNCC2C1 (stereo not given) [CAS_485-35-8] | 0.95 | 295 | 8.2 |
| CCOc1cncc(N2CCCNCC2)c1 [NS3573, 2] | 0.62 | 9970 | 2.2 |
| Brc1ccc(N2CCCNCC2)cn1 [NS3920, 4] | 0.32 | 190 | – |
